Columns and labels:
[1] = tested on: human IgG; assay: Dynamic binding capacity by breakthrough assay; conditions: 20 mg/mL IgG in PBS
Protocol: Measurements of dynamic binding capacity (DBC) were performed on a Waters 2695 unit. MWRGWQ (SEQ ID NO:2)—Workbeads and WQRHGIC (SEQ ID NO:30)—Workbeads resins were wet packed in a 0.1 mL microbore column and equilibrated in PBS pH 7.4. A solution of human IgG at 20 mg/mL in PBS was owed through the column at 0.05 mL/min and 0.02 mL/min, corresponding to residence times (RT) of 2 and 5 min, respectively. The bound IgG was eluted with glycine pH 2.5. The absorbance of the effluent was monitored by UV/Vis spectrophotometry at 280 nm throughout the breakthrough study. The DBC was calculated at 10% of the breakthrough curve.
Breakthrough curves (FIG. 5 panels A-D) were obtained by flowing a 20 mg/mL solution of IgG in PBS through the […] and MWRGWQC (SEQ ID NO:31)-WB adsorbents at two different flow rates (0.05 and 0.02 mL/min) corresponding to two different residence times (2 and 5 minutes).

[2] = tested on: human IgG; format: binding; conditions: peptide on Toyopearl AF-amino-650M, 30 min, room temperature
Protocol: (§1) Measurement of IgG binding by peptide-based chromatographic adsorbents: For initial studies, 35 mg of MWRGWQ (SEQ ID NO:2)-Toyopearl, RHLGWF (SEQ ID NO:3)-Toyopearl, WQRHGI (SEQ ID NO:1)-Toyopearl, GWLHQR (SEQ ID NO:4)-Toyopearl, and HWRGWV (SEQ ID NO:18)-Toyopearl (control) resins were equilibrated in PBS pH 7.4, reaching a swollen volume of 0.1 mL, and subsequently incubated with 1 mg/mL IgG in 0.205 mg/mL CHO cell culture supernatant for 30 minutes. The resins were subsequently washed several times with PBS to remove non-specifically bound proteins. Elution was performed with 100 mM glycine buffer pH 2.5. Flowthrough and elution fractions were collected and analyzed by SDS PAGE under reducing conditions. The resulting gels were stained with Coomassie staining. Further, 25 mg of the adsorbents MWRGWQ (SEQ ID NO:2)-Toyopearl, NIFRGWQ (SEQ ID NO:21)-Toyopearl, MWRAWQ (SEQ ID NO:5)-Toyopearl, MWRGFQ (SEQ ID NO:7)-Toyopearl, MWRGWN (SEQ ID NO:22)-Toyopearl, (NorL) WRGWQ (SEQ ID NO:23)-Toyopearl, MGRGWQ (SEQ ID NO:24)-Toyopearl, MWRWQ (SEQ ID NO:6)-Toyopearl, MWRGGQ (SEQ ID NO:26)-Toyopearl, GWRGWQ (SEQ ID NO:8)-Toyopearl, WQRHGI (SEQ ID NO:1)-Toyopearl, WNRHGI (SEQ ID NO:12)-Toyopearl, WQRAGI (SEQ ID NO:28)-Toyopearl, WQRHAI (SEQ ID NO:11)-Toyopearl, WQRHGL (SEQ ID NO:9)-Toyopearl, FQRHGI (SEQ ID NO:29)-Toyopearl, and WQRHGV (SEQ ID NO:10)-Toyopearl resins were equilibrated in PBS pH 7.4, reaching a swollen volume of 0.1 mL, and subsequently incubated with 1 mg/mL IgG in PBS at pH 7.4 for 30 minutes. The amount of unbound IgG in the supernatant samples was quantified by Bradford assay and utilized to determine the IgG binding % by the peptide variants.
A limited library of residue-by-residue changes confirmed the importance of each residue in peptides WQRHGI (SEQ ID NO:1) and MWRGWQ (SEQ ID NO:2) in reducing the binding energy between the peptide and the IgG target. […] This was accomplished by designing and constructing an ensemble of 20 variants of peptides WQRHGI (SEQ ID NO:1) and MWRGWQ (SEQ ID NO:2). Selected residues in positions 1-6 were mutated. The peptide variants were synthesized directly on Toyopearl AF-amino-650M resin via Fmoc/tBu chemistry. The resulting adsorbents were incubated with a solution of human IgG at 2 mg/mL at a ratio of 1 mL of resin per 3.5 mL of solution for 30 min at room temperature. The residual concentration of IgG in solution was determined by Bradford concentration assay of the supernatants and utilized to calculate the amounts of bound IgG per volume of resin; Table 7 reports the % binding, defined as mg IgG bound by variant/mg IgG bound by original sequence (either WQRHGI (SEQ ID NO:1) or MWRGWQ (SEQ ID NO:2))×100%, of each sequence variant.

[3] = tested on: human polyclonal IgG in CHO-S cell culture fluid; assay: Static purification of IgG from CHO cell culture supernatant on peptide-Toyopearl resins, SDS-PAGE densitometry; conditions: Gel B
Protocol: as §1
Characterization of IgG-binding peptide variants WQRHGI (SEQ ID NO:1), MWRGWQ (SEQ ID NO:2), RHLGWF (SEQ ID NO:3), and GWLHQR (SEQ ID NO:4) in competitive conditions: The four selected sequence variants were tested for their ability to purify human IgG from a CHO cell culture supernatant and found largely to mirror their in silico predictions. Even though they seemed to underperform in silico, RHLGWF (SEQ ID NO:3) and GWLHQR (SEQ ID NO:4) were tested alongside WQRHGI (SEQ ID NO:1) and MWRGWQ (SEQ ID NO:2) in these conditions in order to confirm their ability to bind IgG and examine their selectivity as predicted in silico. The feedstock was prepared by spiking human polyclonal IgG into a clarified null CHO-S cell culture fluid to obtain an IgG concentration of 1 mg/mL and a CHO HCP concentration of 0.205 mg/mL. An aliquot of 500 μL was loaded onto each peptide adsorbent in static conditions for 30 min. Following a washing step with PBS to remove loosely bound proteins, a first elution step was conducted using 0.1 M glycine buffer pH 2.5 to remove all bound proteins. Flow through fractions and pH 2.5 elution fractions were loaded neat and analyzed by SDS PAGE (FIGS. 6A-6B). The values of IgG purity in the eluted fractions were determined by densitometric analysis of the corresponding lanes on the gels, and are reported in Table 9.

[4] = tested on: human polyclonal IgG in CHO-S cell culture fluid; assay: as above; conditions: Gel B, lane E (pH 4)

DBC at 10% breakthrough ([1]; residence time 2 min): 33.6 mg IgG/mL resin | DBC at 10% breakthrough ([1]; residence time 5 min): 43.8 mg IgG/mL resin | % Binding (mg IgG bound by variant/mg IgG bound by original sequence × 100%) [2]: 100.00%
Substance: WQRHGI
% Purity (IgG over total proteins) ([3]; lane FT (flow-through)): 52.71% | % Purity (IgG over total eluted proteins) ([3]; lane R (pH 2.5)): 78.79% | % Purity (IgG over total eluted proteins) [4]: 100%
